One block for each compound: values may come before it. Calls of active or inactive are those of the source.
What was measured:
[1] = biological target: T1, Hexokinase HKDC1 (Homo sapiens, UniProt Q2TB90); experiment: inhibition of HKDC1 glucose phosphorylation – biochemical, W721R variant, dose response (AID 504729); assay type: functional
T1 sequence (Q2TB90 whole entry): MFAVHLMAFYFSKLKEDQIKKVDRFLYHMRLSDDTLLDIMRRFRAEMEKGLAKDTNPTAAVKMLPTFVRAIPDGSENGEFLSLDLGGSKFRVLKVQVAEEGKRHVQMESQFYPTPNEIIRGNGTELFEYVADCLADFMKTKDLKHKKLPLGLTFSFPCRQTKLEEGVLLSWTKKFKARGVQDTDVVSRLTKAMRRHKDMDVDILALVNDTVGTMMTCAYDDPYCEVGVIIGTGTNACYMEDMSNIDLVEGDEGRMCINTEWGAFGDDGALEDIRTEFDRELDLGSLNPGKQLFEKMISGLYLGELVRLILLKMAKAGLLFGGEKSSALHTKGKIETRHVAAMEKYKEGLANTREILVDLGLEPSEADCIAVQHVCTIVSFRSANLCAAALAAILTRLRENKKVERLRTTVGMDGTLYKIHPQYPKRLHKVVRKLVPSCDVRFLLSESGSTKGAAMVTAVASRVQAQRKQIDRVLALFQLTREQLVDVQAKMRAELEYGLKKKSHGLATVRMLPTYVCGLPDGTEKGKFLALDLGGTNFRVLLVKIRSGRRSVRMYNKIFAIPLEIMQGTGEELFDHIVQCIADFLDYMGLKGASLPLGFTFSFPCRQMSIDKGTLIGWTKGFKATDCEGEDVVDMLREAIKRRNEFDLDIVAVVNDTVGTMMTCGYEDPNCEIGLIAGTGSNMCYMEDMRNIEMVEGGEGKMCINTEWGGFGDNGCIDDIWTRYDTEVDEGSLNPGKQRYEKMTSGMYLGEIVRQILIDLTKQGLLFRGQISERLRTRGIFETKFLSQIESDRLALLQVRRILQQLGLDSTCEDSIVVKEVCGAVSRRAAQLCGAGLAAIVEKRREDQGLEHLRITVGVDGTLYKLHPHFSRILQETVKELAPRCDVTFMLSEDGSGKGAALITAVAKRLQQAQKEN

[2] = biological target: T2, Estrogen receptor beta (Homo sapiens, UniProt Q92731);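 also: recombinant ER-beta bound to coactivator SRC1 peptide in presence of estradiol agonist; inhibitors block coactivator peptide binding and lower the FRET signal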
T2 sequence (Q92731 whole entry): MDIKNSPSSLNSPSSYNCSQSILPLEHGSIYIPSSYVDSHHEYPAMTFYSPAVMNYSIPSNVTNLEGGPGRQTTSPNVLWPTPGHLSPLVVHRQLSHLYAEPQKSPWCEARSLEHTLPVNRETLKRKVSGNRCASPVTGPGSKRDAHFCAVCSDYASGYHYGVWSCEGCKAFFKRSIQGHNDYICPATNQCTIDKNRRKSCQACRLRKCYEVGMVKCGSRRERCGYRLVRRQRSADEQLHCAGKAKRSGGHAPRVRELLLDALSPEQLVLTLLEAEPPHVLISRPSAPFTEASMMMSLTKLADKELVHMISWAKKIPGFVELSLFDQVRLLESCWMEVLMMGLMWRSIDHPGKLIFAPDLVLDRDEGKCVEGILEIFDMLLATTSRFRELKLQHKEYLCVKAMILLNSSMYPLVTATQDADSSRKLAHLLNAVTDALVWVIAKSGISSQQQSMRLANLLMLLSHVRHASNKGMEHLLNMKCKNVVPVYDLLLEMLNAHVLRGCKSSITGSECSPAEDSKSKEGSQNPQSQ

[3] = biological target: T2, Estrogen receptor beta; experiment: blockers of SRC-3 recruitment to ERβ – biochemical, ELISA, streptavidin-HRP readout, orthogonal assay, confirmation (AID 1060)
[4] = biological target: Ras and Rab interactor 1/Tyrosine-protein kinase ABL1 (Homo sapiens, UniProt P00519+Q13671); assay type: functional;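 also: biochemical TR-FRET dose-response test measuring inhibition of binding between Rin1 and Abl proteins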
[5] = biological target: T3, Bcl-2-like protein 10 (Homo sapiens, UniProt Q9HD36); experiment: Bcl-B/TR3 peptide binding disruption – biochemical, fluorescence polarization, FITC-TR3 peptide, selectivity assay for Bfl-1 inhibitor project, primary screen (AID 748);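 also: fluorescence polarization from a fluorescein-labelled TR3 peptide binding purified Bcl-B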
T3 sequence (Q9HD36 whole entry): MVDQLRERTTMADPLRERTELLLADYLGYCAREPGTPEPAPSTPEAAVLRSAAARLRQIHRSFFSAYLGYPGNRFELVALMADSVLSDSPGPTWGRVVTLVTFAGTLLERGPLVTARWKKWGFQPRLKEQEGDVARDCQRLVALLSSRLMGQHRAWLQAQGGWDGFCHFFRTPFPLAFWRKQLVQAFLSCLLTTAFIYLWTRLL

[6] = biological target: T4, Estrogen receptor (Homo sapiens, UniProt P03372);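 also: potency for inhibiting coactivator peptide recruitment to the receptor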
T4 sequence (P03372 whole entry): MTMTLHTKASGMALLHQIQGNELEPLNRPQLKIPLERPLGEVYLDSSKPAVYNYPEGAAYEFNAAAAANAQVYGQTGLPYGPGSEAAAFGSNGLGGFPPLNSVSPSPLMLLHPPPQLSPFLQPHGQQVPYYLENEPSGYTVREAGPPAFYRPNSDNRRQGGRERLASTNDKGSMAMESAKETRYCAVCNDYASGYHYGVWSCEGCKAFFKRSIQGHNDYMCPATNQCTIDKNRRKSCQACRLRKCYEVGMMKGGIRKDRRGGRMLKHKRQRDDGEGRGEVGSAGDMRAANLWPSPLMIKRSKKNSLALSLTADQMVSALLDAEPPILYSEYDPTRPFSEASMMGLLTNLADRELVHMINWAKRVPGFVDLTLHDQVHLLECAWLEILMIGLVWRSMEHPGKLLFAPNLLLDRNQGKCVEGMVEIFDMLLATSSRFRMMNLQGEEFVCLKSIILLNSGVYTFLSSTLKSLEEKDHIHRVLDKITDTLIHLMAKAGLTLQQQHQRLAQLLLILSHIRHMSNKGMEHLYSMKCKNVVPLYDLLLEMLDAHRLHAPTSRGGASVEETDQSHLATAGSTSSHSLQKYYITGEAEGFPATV

[7] = test system: BJ; experiment: BJ-TERT fibroblast viability loss – cell-based, RAS-independent, luminescence, dose response (AID 1933); assay type: functional; details: Homo sapiens
[8] = test system: BJ; experiment: BJ-TERT-LT-ST fibroblast viability loss – cell-based, RAS-independent, luminescence, dose response (AID 1935); assay type: functional; details: Homo sapiens;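 also: BJ fibroblasts immortalized with TERT plus LT and ST oncogenes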
[9] = biological target: T5, Voltage-gated N-type calcium channel alpha-1B subunit/Amyloid beta A4 precursor protein-binding family A member 1 (Homo sapiens, UniProt Q00975+Q02410); assay type: protein assay
T5 sequence (Q00975 whole entry): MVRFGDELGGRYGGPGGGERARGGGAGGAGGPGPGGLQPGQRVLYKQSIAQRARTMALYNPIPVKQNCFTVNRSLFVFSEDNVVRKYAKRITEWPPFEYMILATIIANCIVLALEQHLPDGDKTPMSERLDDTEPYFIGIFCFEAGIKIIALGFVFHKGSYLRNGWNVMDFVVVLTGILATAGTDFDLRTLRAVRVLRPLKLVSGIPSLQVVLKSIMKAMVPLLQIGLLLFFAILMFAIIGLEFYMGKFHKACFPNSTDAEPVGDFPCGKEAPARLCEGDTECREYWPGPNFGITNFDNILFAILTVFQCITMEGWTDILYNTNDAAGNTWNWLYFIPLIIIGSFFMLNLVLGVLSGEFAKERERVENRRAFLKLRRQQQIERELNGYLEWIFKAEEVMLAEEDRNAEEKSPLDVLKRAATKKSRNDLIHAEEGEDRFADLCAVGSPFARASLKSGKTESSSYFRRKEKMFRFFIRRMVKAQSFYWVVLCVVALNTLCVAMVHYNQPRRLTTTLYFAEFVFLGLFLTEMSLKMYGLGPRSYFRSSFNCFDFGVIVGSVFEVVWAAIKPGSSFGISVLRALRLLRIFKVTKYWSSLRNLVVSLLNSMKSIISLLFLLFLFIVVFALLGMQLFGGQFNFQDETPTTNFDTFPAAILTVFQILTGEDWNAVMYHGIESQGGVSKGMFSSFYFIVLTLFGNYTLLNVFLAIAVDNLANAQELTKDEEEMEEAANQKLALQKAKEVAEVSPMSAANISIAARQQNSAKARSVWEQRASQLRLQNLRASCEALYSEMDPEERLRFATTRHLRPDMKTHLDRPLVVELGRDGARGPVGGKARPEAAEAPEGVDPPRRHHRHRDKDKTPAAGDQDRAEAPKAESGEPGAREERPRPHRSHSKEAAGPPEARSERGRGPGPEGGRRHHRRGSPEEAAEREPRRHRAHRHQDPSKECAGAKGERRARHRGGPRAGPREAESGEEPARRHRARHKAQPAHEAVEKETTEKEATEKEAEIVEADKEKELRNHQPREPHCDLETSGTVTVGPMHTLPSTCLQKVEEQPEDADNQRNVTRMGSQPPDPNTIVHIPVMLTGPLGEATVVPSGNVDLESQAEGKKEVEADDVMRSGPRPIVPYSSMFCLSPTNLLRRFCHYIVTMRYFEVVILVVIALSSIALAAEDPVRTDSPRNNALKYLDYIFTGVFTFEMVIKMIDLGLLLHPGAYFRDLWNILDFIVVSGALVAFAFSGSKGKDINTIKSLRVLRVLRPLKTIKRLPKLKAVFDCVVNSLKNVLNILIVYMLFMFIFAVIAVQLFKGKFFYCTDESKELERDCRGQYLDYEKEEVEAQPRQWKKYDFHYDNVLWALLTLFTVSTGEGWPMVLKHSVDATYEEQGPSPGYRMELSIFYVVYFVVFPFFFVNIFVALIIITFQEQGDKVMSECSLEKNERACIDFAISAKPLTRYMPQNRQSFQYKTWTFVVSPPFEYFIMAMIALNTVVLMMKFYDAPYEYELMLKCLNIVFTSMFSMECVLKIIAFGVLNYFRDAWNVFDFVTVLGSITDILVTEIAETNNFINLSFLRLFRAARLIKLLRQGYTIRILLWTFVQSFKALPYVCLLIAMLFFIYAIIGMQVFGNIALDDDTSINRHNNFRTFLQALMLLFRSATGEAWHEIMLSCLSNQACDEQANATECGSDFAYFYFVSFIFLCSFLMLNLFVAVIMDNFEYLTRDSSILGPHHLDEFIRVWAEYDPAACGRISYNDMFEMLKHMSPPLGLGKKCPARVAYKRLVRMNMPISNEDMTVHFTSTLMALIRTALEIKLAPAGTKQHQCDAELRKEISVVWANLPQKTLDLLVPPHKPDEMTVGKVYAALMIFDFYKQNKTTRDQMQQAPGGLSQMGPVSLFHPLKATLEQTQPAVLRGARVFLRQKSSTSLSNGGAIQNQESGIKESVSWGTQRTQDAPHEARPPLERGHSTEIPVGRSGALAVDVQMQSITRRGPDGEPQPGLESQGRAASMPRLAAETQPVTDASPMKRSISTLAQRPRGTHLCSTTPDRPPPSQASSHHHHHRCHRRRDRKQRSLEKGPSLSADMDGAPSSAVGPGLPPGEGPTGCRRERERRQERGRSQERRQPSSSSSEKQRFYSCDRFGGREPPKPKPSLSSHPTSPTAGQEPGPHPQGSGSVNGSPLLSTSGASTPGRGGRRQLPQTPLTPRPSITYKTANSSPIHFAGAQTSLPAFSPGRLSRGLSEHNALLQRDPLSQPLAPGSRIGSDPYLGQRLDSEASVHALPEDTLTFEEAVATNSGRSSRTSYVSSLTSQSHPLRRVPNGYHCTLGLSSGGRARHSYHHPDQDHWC
T5 sequence (Q02410 whole entry): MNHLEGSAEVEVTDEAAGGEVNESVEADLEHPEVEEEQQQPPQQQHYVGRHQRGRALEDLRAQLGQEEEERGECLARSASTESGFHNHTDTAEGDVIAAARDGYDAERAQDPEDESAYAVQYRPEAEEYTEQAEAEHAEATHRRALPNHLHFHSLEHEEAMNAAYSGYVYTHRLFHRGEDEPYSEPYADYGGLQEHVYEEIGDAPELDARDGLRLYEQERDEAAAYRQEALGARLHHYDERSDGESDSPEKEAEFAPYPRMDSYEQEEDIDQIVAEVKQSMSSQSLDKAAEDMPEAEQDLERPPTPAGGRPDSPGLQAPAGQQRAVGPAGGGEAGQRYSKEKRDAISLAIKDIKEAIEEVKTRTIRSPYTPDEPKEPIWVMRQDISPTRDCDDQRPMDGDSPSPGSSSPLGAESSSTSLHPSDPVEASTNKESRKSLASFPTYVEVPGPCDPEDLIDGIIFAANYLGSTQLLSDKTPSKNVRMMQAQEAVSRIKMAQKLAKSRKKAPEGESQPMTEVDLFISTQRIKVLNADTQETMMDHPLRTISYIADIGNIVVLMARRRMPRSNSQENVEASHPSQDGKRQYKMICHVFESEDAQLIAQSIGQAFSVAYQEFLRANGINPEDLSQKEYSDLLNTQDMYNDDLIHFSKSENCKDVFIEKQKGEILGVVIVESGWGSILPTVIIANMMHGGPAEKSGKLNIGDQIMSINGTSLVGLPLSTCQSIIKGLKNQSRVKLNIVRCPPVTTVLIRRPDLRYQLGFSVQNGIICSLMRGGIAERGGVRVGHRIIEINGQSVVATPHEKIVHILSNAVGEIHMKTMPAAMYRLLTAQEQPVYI

[10] = biological target: T5, Voltage-gated N-type calcium channel alpha-1B subunit/Amyloid beta A4 precursor protein-binding family A member 1; assay type: protein assay; remark: listed apart in the source
[11] = test system: BJ; experiment: cells; assay type: functional, cell-based; details: Homo sapiens
[12] = DRD fibroblast viability loss – cell-based, non-viral oncogenic, luminescence, dose response (AID 1934); assay type: functional; details: Homo sapiens
[13] = biological target: T6, Heat shock factor protein 1 (Mus musculus, UniProt P38532); experiment: enhancement of HSF1-driven luciferase signal – cell-based, NIH3T3, luminescence, dose retest, confirmation (AID 435004); assay type: functional;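 also: stress induced by proteasome inhibitor MG132 added 30 min after compound; luciferase reporter driven by HSF1 response element in NIH3T3 cells; actives raise luminescence as potentiators of the MG132 stress response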
T6 sequence (P38532 whole entry): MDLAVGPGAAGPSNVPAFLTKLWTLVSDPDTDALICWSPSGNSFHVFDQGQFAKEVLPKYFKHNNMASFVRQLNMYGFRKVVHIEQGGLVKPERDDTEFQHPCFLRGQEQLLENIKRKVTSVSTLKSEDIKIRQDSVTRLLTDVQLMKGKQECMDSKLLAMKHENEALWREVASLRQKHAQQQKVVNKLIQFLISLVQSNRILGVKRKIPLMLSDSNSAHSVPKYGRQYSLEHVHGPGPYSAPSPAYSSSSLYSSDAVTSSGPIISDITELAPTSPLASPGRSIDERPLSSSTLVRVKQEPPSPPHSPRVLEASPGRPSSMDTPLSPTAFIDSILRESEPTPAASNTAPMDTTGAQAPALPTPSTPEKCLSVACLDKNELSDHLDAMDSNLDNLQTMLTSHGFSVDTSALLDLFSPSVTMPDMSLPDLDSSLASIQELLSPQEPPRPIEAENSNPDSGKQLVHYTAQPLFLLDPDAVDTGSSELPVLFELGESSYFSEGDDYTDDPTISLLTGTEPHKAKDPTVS

[14] = biological target: T6, Heat shock factor protein 1; experiment: decrease of HSF1-responsive luciferase luminescence – cell-based, NIH3T3, dose retest, confirmation (AID 2382); assay type: functional;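 also: NIH3T3 fibroblasts with HSF1-driven luciferase reporter stressed by proteasome inhibitor MG132; luminescence from HSF1-driven luciferase expression after 8 hours of MG132 stress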
[15] = biological target: G-protein coupled receptor 35 (Homo sapiens, UniProt Q9HC97); experiment: inhibition of zaprinast-stimulated GPR35 beta-arrestin translocation – imaging, U2OS, beta-arrestin-GFP, zaprinast agonist, primary screen (AID 2058); assay type: functional;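 also: antagonist potency meaning inhibition of agonist-induced arrestin redistribution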
Sequence of G-protein coupled receptor 35 (Q9HC97 whole entry): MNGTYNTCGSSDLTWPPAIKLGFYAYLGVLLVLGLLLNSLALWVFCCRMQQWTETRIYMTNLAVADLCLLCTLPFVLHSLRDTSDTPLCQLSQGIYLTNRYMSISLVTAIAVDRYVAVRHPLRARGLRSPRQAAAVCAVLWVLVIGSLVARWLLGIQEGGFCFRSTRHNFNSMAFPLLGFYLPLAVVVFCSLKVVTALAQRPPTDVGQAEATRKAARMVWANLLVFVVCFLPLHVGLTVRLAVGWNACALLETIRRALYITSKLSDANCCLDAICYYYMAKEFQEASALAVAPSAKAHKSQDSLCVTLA

[16] = biological target: Induced myeloid leukemia cell differentiation protein Mcl-1 (Homo sapiens, UniProt Q07820); assay type: functional
Sequence of Induced myeloid leukemia cell differentiation protein Mcl-1 (Q07820 whole entry): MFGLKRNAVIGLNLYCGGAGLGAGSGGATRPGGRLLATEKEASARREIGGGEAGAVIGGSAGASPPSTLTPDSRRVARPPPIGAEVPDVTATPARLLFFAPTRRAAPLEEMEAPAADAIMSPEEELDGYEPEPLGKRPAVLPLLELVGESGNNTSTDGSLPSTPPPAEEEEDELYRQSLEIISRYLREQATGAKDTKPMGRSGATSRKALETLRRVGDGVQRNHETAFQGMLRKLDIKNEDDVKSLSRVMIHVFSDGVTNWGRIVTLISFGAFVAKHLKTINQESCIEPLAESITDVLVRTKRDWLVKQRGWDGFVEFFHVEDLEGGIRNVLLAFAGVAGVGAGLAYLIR

- IC50 [1]: 7.58 µM (active)
SMILES: COc1ccc2cc(CCNC(=O)c3ccc(S(=O)(=O)N4CCCC4)cc3)c(O)nc2c1

- IC50 [2]: > 50 µM (not active)
- IC50 [3]: 0.721 µM (not active)
- IC50 [4]: 19.6 µM (inactive)
- IC50 [5]: > 100 µM (inactive)
SMILES: Cc1ccc(-n2c(SCc3cc(=O)n4ccsc4n3)nnc2-c2cccnc2)c(C)c1

SMILES: Cc1c(C(=O)OCC2CCCO2)[nH]c2c1C(=O)CC(c1ccco1)C2 (stereo not drawn)
- IC50 [6]: 32.1 µM (not active)
- EC50 [7]: 12.2 µM (active)
- EC50 [8]: 23.6 µM (active)
- IC50 [9]: 21.9 µM (active)
- IC50 [10]: > 50 µM (inactive)
- IC50 [5]: 23.8 µM (active)
- EC50 [11]: 36.9 µM (active)
- EC50 [12]: 21.8 µM (active)
- EC50 [13]: > 260 µM (inactive)

- EC50 [14]: > 195 µM (not active)
- IC50 [15]: 1.78 µM (active)
SMILES: CC(=O)c1ccc(NC(=O)C(C)n2nc(-c3ccccc3)c3cc(Cl)ccc32)cc1 (stereo not drawn)

- IC50 [16]: 7.31 µM (not active)
- IC50 [1]: 17.2 µM (active)
SMILES: CCn1cc(C(=O)NCc2ccc3c(c2)OCO3)c2cc(OC)c(OC)cc2c1=O
